Results from patent US20240425529A1, “BORIC ACID DERIVATIVE” (SHOUYAO HOLDINGS (BEIJING) CO., LTD., priority 2021, published 2024).

How the values were obtained:
LMP7 [1] = target: T1, LMP7 (Homo sapiens, UniProt P28062); experiment: Cytological inhibitory activity on LMP7 in MOLT-4 cells; assay type: cell-based; conditions: incubation for 2 hours with compound, read-out: Cytological activity data LMP7 Activity (MOLT-4Cell)
T1 construct: using MOLT-4 cell lysate as the enzyme source of LMP7; endogenous in cells; host or cells: MOLT-4 (human acute lymphoblastic leukemia cells)
Description: MOLT-4 are human acute lymphoblastic leukemia cells and have been identified as cells with high expression of LMP7. In this experiment, the compounds were pre-incubated with MOLT-4, and Ac-ANW-AMC (BonstonBiochem, Cat #S-320) was used as the substrate of LMP7 to establish the detection method for the enzymatic activity of LMP7 in cells and detect the compound inhibitory activity (half inhibitory concentration, IC50).
Cells were plated in a 24-well plate (Corning) at a concentration of 1.5×10^5/ml per well. The next day compounds were prepared and diluted in a 5-fold gradient from 2 mM in 100% DMSO for a total of 8 concentrations. 2 μl for each concentration of the compound was added to a 1-ml cell culture medium, supplemented with 1 ml of RPMI-1640 only (final FBS concentration 5%, v/v). The compounds were mixed with the cells. After incubation for 2 hours in the incubator, the cells were centrifuged at 2000 rpm for 8 minutes to discard the supernatant. The cells were washed once with 2 ml PBS (Solarbio), and centrifuged again to discard the supernatant. The cells were resuspended in 100 μl of lysis buffer (20 mM Tris, pH 8.0, 5 mM EDTA, plus Protease inhibitor (1: 100) and Phosphatase Inhibitor (1:100) when used) and left in a 4° C. refrigerator for 45 minutes.
After 2 min. of centrifuge at 2000 rpm, the lysate was transferred from the 24-well plate to a 96-well plate, and centrifuged at 2000 rpm, 4° C., for 15 min. The supernatant was the lysate. Protein quantification was performed using the BCA method (Thermo, #23225). A 2* lysate was prepared with the reaction buffer (20 mM Tris, pH 8.0, 0.5 mM EDTA) at a final concentration of 20 ng/μl. 2* Ac-ANW-AMC was prepared with the reaction buffer at a final concentration of 100 μM. 10 µl of 2* lysate was added to a 384-well plate (OptiPlate-384, purchased from PerkinElmer), and added with 10 W of 2* Ac-ANW-AMC. The reaction was started by centrifugation at 23° C. in the dark for 1 hour. After completion of the reaction, the signal value (excitation wavelength 345 nm/emission wavelength 445 nm) was read on the CLARIO starPlus (purchased from BMG LRBTECH). Enzyme activity was determined at 8 concentrations for each compound, and data were processed using the GraphPad Prism software to calculate the half inhibitory concentration of the compound on LMP7 hydrolase in MOLT-4 cells, i.e. the IC50 value.

LMP7 [2] = target: T1, LMP7; experiment: Enzymatic inhibitory activity on LMP7 (MOLT-4 cell lysate, Ac-ANW-AMC substrate); assay type: biochemical; conditions: 1 hour pre-incubation
Text: LMP7 is a catalytic subunit of immunoproteasomes. In this experiment, an enzymatic detection platform was established using its hydrolytic enzyme activity and used for compound activity detection. Using Ac-ANW-AMC (Bonston Biochem, Cat #S-320) as a substrate for LMP7, the amount of fluorescent group AMC (7-amino-4-methylcoumarin) released after hydrolysis can reflect the enzymatic activity. MOLT-4 cells are human acute lymphoblastic leukemia cells and have been identified as cells with high expression of LMP7. We established an enzymatic detection method for compound inhibition on LMP7 using MOLT-4 cell lysate as the enzyme source of LMP7 and detected the compound inhibitory activity (half inhibitory concentration, IC50).
(§1) MOLT-4 cells were cultured in a 75 cm^2 cell culture flask (Corning) (37° C., 95% air, and 5% CO2) with RPMI-1640 (Biological Industries) medium containing 10% fetal bovine serum (Biological Industries) and 1% Pen Strep (Gibco) and passaged 2-3 times one week. 1×10^7 MOLT-4 cells were collected, resuspended in 1 ml of PBS (Solarbio), and centrifuged at 3000 rpm for 5 minutes. The supernatant was aspirated off. The cells were resuspended in 500 μl of lysis buffer (20 mM Tris, pH 8.0, 5 mM EDTA, plus Protease inhibitor (1:1000) and Phosphatase Inhibitor (1:100) when used) and left on ice for 30 minutes. The cells were broken by supersonic technique, 0.5 S on, 0.5 S off, for 2.5 S. The centrifuge was performed at 12000 rpm, 4° C. for 10 minutes. The supernatant was the cell lysate and protein quantification was performed by using the BCA method (Thermo, #23225).
Compounds were diluted in a 5-fold gradient with 100% DMSO for a total of 9 concentrations: 2 W for each concentration was added to a 48-μl reaction buffer (20 mM Tris, pH 8.0, 0.5 mM EDTA) and mixed well as 4* compound (final concentrations: 2000, 400, 80, 16, 3.2, 0.64, 0.128, 0.0256, and 0 nM) for later use. A reaction buffer was used to prepare 4* MOLT-4 cell lysate at a final concentration of 20 ng/μl and 2*Ac-ANW-AMC at a final concentration of 100 µM. 5 μl of 4* compound was added to a 384-well plate (OptiPlate-384, purchased from PerkinElmer), added with 5 W of 4* cell lysate, centrifuged, and reacted in an incubator at 23° C. for 1 hour. 10 W of 2* Ac-ANW-AMC was added and the reaction was started by centrifugation at 23° C. in the dark for 2 hours. After completion of the reaction, the signal value (excitation wavelength 345 nm/emission wavelength 445 nm) was read on the CLARIO star^Plus (purchased from BMG LRBTECH). Enzyme activity was determined at 9 concentrations for each compound, and data were processed using the GraphPad Prism software to calculate the half inhibitory concentration of the compound on LMP7, i.e. the IC50 value.

β5 = target: T2, β5 (Homo sapiens, UniProt P28074); experiment: Enzymatic inhibitory activity on β5 (HEK-293 cell lysate, Ac-WLA-AMC substrate); assay type: biochemical; conditions: 1 hour pre-incubation
T2 construct: using HEK-293 cell lysate as the enzyme source of D5; endogenous in cells; host or cells: HEK-293 (human embryonic kidney cells)
Text: β5 is a catalytic subunit of immunoproteasomes. In this experiment, an enzymatic detection platform was established using its hydrolytic enzyme activity and used for compound activity detection. Using Ac-WLA-AMC (Bonston Biochem, Cat #5-330) as a substrate for D5, the amount of fluorescent group AMC (7-amino-4-methylcoumarin) released after hydrolysis can reflect the enzymatic activity. […] We established an enzymatic detection method for compound inhibition on D5 using HEK-293 cell lysate as the enzyme source of D5 and detected the compound inhibitory activity (half inhibitory concentration, IC50). The enzymatic inhibitory activity of compounds against D5 was used as a measure index of compound selectivity.
as §1, with “HEK-293” for “MOLT-4”, “DMEM” for “RPMI-1640”, “performed” for “performed by”
Compounds were diluted in a 5-fold gradient with 100% DMSO for a total of 9 concentrations. 2 W for each concentration was added to a 48-μl reaction buffer (20 mM Tris, pH 8.0, 0.5 mM EDTA) and mixed well as 4* compound (final concentrations: 100000, 20000, 4000, 800, 160, 32, 6.4, 1.28, and 0 nM) for later use. A reaction buffer was used to prepare 4*HEK-293 cell lysate at a final concentration of 25 ng/μl and 2*Ac-WLA-AMC at a final concentration of 20 μM. 5 W of 4* compound was added to a 384-well plate (OptiPlate-384, purchased from PerkinElmer), added with 5 W of 4*HEK-293 cell lysate, centrifuged, and reacted in an incubator at 23° C. for 1 hour. 10 W of 2* Ac-WLA-AMC was added and the reaction was started by centrifugation at 23° C. in the dark for 2 hours. After completion of the reaction, the signal value (excitation wavelength 345 nm/emission wavelength 445 nm) was read on the CLARIO star^Plus (purchased from BMG LRBTECH). Enzyme activity was determined at 9 concentrations for each compound, and data were processed using the GraphPad Prism software to calculate the half inhibitory concentration of the compound on D5, i.e. the IC50 value.

Compound | IC50 (LMP7 [1]) [nM] | IC50 (LMP7 [2]) [nM] | IC50 (β5) [nM]
O=C(Nc1cnccn1)C(=O)N[C@@H](Cc1coc2ccccc12)B1OC(=O)c2ccccc2O1 [Ex. 20, N-((1R)-2-(1-benzofuran-3-yl)-1-(4-oxo-2,4-dihydro-1,3,2-benzo[d][1,3,2]dioxaborinin-2-yl)ethyl)-N-(pyrazin-2-yl)oxalamide] | 0.32 | 1.2 | 18.8
O=C(Nc1cccnc1)C(=O)N[C@@H](Cc1coc2ccccc12)B(O)O [Ex. 21, (R)-(2-(benzofuran-3-yl)-1-(2-(pyridin-3-yl)amino-2-oxoacetamido)ethyl) boronic acid] | 3.45 | 2.86 | 29
O=C(NCC1CCCO1)C(=O)N[C@@H](Cc1coc2ccccc12)B(O)O (stereo partly drawn) [Ex. 22, (R)-(2-(benzofuran-3-yl)-1-(2-(((tetrahydrofuran-2-yl)methyl)amino)-2-oxoacetamido)ethyl)boronic acid] | 1.83 | 3.57 | 22.2
CC1(C)[C@@H]2C[C@H]3OB([C@H](Cc4coc5ccccc45)NC(=O)C(=O)Nc4ccccn4)O[C@@]3(C)[C@H]1C2 [Ex. 23, (R)-(2-(benzofuran-3-yl)-1-(2-oxo-2-(pyridin-2-ylamino)acetamido)ethyl) boronic acid (1S,2S,3R,5S)-(+)-pinane-2,3-diol ester] | 1.65 | 3.81 | 126
O=C(Nc1cc(Cl)ccc1Cl)C(=O)N[C@@H](Cc1coc2ccccc12)B(O)O [Ex. 24, ((R)-2-(benzofuran-3-yl)-1-(2-oxo-2-((2,5-dichlorophenyl)amino)acetamido)ethyl)boronic acid] | 3.92 | 6.27 | 115
COc1ccc2nc(NC(=O)C(=O)N[C@@H](Cc3coc4ccccc34)B(O)O)sc2c1 [Ex. 26, (R)-(2-(benzofuran-3-yl)-1-(2-oxo-2-((6-methoxybenzo[d]thiazol-2-yl)amino)acetamido)ethyl)boronic acid] | 0.73 | 4.86 | 19.4
O=C(Nc1cccc2c1OCC2)C(=O)N[C@@H](Cc1coc2ccccc12)B(O)O [Ex. 28, (R)-(2-(benzofuran-3-yl)-1-(2-oxo-2-((2,3-dihydrobenzofuran-7-yl)amino)acetamido)ethyl)boronic acid] | 3.84 | 3.82 | 22.6
O=C(N[C@@H](Cc1coc2ccccc12)B(O)O)C(=O)N1CC2COCC2C1 (stereo partly drawn) [Ex. 29, (R)-(2-(benzofuran-3-yl)-1-(2-oxo-2-(tetrahydro-1H-furo[3,4-c]pyrrol-5(3H)-yl)acetamido)ethyl)boronic acid] | 15.9 | 7.81 | 41.4
O=C(Nc1cccc2c1OCCO2)C(=O)N[C@@H](Cc1coc2ccccc12)B(O)O [Ex. 30, (R)-(2-(benzofuran-3-yl)-1-(2-oxo-2-((2,3-dihydrobenzo[b][1,4]dioxin-5-yl)amino)acetamido)ethyl)boronic acid] | 8.77 | 5.61 | 24.6
Cc1csc(NC(=O)C(=O)N[C@@H](Cc2coc3ccccc23)B(O)O)n1 [Ex. 31, (R)-(2-(benzofuran-3-yl)-1-(2-oxo-2-((4-methylthiazol-2-yl)amino)acetamido)ethyl)boronic acid] | 11 | 2.91 | 72.5
CC1(C)[C@@H]2C[C@H]3OB([C@H](Cc4coc5ccccc45)NC(=O)C(=O)Nc4ncc(F)s4)O[C@@]3(C)[C@H]1C2 [Ex. 33, (R)-(2-(benzofuran-3-yl)-1-(2-oxo-2-((5-fluorothiazol-2-yl)amino)acetamido)ethyl)boronic acid (1S,2S,3R,5S)-(+)-pinane-2,3-diol ester] | 9.5 | 3.08 | 39
O=C(Nc1ncc(F)s1)C(=O)N[C@@H](Cc1coc2ccccc12)B(O)O [Ex. 34, (R)-(2-(benzofuran-3-yl)-1-(2-oxo-2-((5-fluorothiazol-2-yl)amino)acetamido)ethyl)boronic acid] | 29.2 | 7.46 | 132
